Data from patent US20260365671A1, “HETEROCYCLIC COMPOUND” (Takeda Pharmaceutical Company Limited, priority 2022, published 2026).

Legend:
[1] = target: T1, NLRP3 inflammasome (Homo sapiens, UniProt Q96P20); test: IL-1β TR-FRET assay (THP-1 cells differentiated to macrophages with IFN-γ, LPS primed, ATP activated; HTRF); format: cell-based; settings: THP-1 macrophages, 50 ng/mL LPS priming, compound 30 min, 20 mM ATP 2 hours
T1 construct: IL-1beta HTRF
Procedure: (§1) The biological activity of Compound (I) with respect to NLRP3 was determined using the following in vitro methods.
IL-1β TR-FRET Assay (Reported as IC50)
Monocytic THP-1 cells (ATCC: TIB-202) were maintained in accordance with the provider's instructions in RPMI media (Life Technologies, Cat #A10491-01); RPMI was supplemented with 10% heat inactivated fetal bovine serum (Corning, Cat #35-010-CV). The cells were differentiated into macrophages by the addition of 25 ng/mL IFN-γ (PeproTech, Cat #AF300-02-100UG) for 24 hours at 37 °C/5% CO2. Media was exchanged with fresh media with no FBS, and the cells were treated with 50 ng/mL LPS (priming step) (LPS-EK: Invivogen, Cat #tlrl-peklps). The cells were plated at 240,000 cells per well in 384-well flat-bottom cell culture plates (FALCON, Cat #353962) and were incubated for 24 hours at 37 °C/5% CO2. Compounds were serially diluted (half log dilutions) with DMSO and were finally diluted with Media with no FBS. The compounds were added to the cells in 384-well plates (added in 1:3) and then the plates were incubated for 30 minutes at 37 °C/5% CO2. The NLRP3 inflammasome was activated with the addition of 20 mM ATP (Sigma Cat #A3377-25G) and the cells were incubated for 2 hours at 37 °C/5% CO2. At the end of the incubation period, 30 μL supernatant was transferred to another 384-well plate and mixed on a plate shaker for 1 minutes. The supernatant was mixed with HTRF Antibody (Human IL1 beta kit, Cisbio, 62HIL1BPEH) in assay plates (Greiner Bio-One, Cat #784075) and the assay plates were incubated in shading box at room temperature for 16-24 hours. HTRF signal was measured by EnVision (Perkinelmer) in accordance with the manufacturer's instructions.
(§2) The IC50 values were calculated from a plot of percentage of inhibition versus the inhibitor concentration by a logistics curve fit according to: Y=[Bottom+(Top−Bottom)]/(1+10^[(Log IC50−X)·Hill Slope], where Y is the % inhibition at the inhibitor concentration, X, “Bottom” is the lowest inhibition value, i.e., 0%, “Top” is the maximum inhibition value, i.e., 100%, and the “Hill Slope” describes the slope of the sigmoidal curve between the “Bottom” and “Top” values. The curve fitting was conducted with XLfit (ver. 5.5.0.5, ID Business Solutions Limited) or internally developed software.
(§3) Table 2 lists in vitro biological assay data (IL-1β and TNF-α) for the compounds shown in the examples. These assays are described in the section entitled Biological Activity, above.

[2] = system: NF-κB pathway; test: TNF-α assay (THP-1 cells differentiated to macrophages with IFN-γ, NF-κB pathway activated with LPS; ELISA); format: cell-based, Human; settings: compound 30 min, 50 ng/mL LPS 3 hours
Procedure: as §1
TNF-α Assay (Reported as IC50)
Monocytic THP-1 cells (ATCC: TIB-202) were maintained in accordance with the provider's instructions in RPMI media (Life Technologies, Cat #A10491-01); RPMI was supplemented with 10% heat inactivated fetal bovine serum (Hyclone Cat #SH30396.03). The cells were differentiated into macrophages by the addition of 25 ng/mL IFN-γ for 24 hours at 37 °C/5% CO2. Media was exchanged with fresh media with no FBS. The cells were plated at 40,000 cells per well in 384-well flat-bottom cell culture plates (Costar 3764) containing compounds (added in 1:1000) in a 1:3.16 serial dilution series in DMSO and were incubated for 30 minutes at 37 °C/5% CO2. The NF-κB pathway was activated with the addition of 50 ng/mL LPS and the cells were incubated for 3 hours at 37 °C/5% CO2. At the end of the incubation period, supernatant ([…]) was removed, and […] were monitored using an ELISA (Human TNF-α ELISA, R&D systems, Cat #DY210) according to the manufacturer's instructions.
as §2, §3

[3] = Homo sapiens, THP-1, THP-1 macrophages

T1 sequence (Q96P20 whole entry): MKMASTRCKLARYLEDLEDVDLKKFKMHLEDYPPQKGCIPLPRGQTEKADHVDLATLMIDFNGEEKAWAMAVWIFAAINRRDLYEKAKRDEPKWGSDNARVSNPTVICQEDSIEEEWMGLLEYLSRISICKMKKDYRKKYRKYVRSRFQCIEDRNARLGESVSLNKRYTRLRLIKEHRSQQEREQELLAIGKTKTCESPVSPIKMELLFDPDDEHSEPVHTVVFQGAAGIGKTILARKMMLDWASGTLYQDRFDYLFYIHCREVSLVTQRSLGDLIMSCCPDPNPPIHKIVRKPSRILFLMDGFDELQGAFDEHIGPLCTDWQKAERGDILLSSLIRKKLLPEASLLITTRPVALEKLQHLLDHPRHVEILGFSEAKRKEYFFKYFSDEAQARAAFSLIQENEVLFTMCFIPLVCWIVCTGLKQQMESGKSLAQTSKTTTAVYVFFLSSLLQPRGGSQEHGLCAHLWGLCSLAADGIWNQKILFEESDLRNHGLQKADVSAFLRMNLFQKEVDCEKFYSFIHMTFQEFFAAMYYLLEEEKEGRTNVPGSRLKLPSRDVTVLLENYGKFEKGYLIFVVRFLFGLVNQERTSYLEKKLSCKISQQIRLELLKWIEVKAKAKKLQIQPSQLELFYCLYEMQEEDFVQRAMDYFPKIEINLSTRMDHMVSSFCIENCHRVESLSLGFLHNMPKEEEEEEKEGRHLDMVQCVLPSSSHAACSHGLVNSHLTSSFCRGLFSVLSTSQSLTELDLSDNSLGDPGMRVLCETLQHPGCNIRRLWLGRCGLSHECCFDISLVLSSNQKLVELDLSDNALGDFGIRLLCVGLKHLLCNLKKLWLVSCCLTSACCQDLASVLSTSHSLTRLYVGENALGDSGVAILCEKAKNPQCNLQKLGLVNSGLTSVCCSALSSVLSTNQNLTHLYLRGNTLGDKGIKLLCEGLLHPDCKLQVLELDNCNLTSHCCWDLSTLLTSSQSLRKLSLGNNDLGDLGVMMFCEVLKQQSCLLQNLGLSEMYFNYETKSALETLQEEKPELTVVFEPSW

| SMILES | IC50 [1] [nM] | IC50 [2, 3] [nM] | IC50 ([2]; THP-1 macrophages) [nM] |
| --- | --- | --- | --- |
| CNC(=O)N1CCC(Nc2nc3nn(-c4c(C)cc(C)cc4O)cc3s2)CC1 [Example 131, 4-{[2-(2-hydroxy-4,6-dimethylphenyl)-2H-pyrazolo[3,4-d][1,3]thiazol-5-yl]amino}-N-methylpiperidine-1-carboxamide] | 580 | > 30000 | – |
| Cc1cc(C)c(-n2cc3sc(NC4(C(F)F)CC4)nc3n2)c(O)c1 [Example 147, 2-(5-{[1-(difluoromethyl)cyclopropyl]amino}-2H-pyrazolo[3,4-d][1,3]thiazol-2-yl)-3,5-dimethylphenol] | 840 | > 10000 | – |
| CCN1C[C@H](Nc2nc3nn(-c4c(C)cc(C)cc4O)cc3s2)[C@@H](F)C1 (racemic) [Example 21, racemic mixture of 2-(5-{[(3R,4R)-1-ethyl-4-fluoropyrrolidin-3-yl]amino}-2H-pyrazolo[3,4-d][1,3]thiazol-2-yl)-3,5-dimethylphenol and 2-(5-{[(3S,4S)-1-ethyl-4-fluoropyrrolidin-3-yl]amino}-2H-pyrazolo[3,4-d][1,3]thiazol-2-yl)-3,5-dimethylphenol] | 160 | > 30000 | – |
| Cc1cc(Cl)cc(O)c1-n1cc2c(nc(N[C@@H]3C[C@@H](F)CN(C)C3)n2C)n1 [Example 82, 5-chloro-2-[5-{[(3R,5R)-5-fluoro-1-methylpiperidin-3-yl]amino}-4-methylimidazo[4,5-c]pyrazol-2(4H)-yl]-3-methylphenol] | 49 | > 30000 | – |
| CCC(=O)N1C[C@H](Nc2nc3nn(-c4c(C)cc(C)cc4O)cc3s2)[C@@H](F)C1 (racemic) [Example 105, racemic mixture of 1-[(3R,4R)-3-fluoro-4-{[2-(2-hydroxy-4,6-dimethylphenyl)-2H-pyrazolo[3,4-d][1,3]thiazol-5-yl]amino}pyrrolidin-1-yl]propan-1-one and 1-[(3S,4S)-3-fluoro-4-{[2-(2-hydroxy-4,6-dimethylphenyl)-2H-pyrazolo[3,4-d][1,3]thiazol-5-yl]amino}pyrrolidin-1-yl]propan-1-one] | 310 | > 30000 | – |
| Cc1cc(C)c(-n2cc3sc(NC4CCN(C(=O)C5(C#N)CC5)C4)nc3n2)c(O)c1 (stereo not drawn) [Example 99, 1-(3-{[2-(2-hydroxy-4,6-dimethylphenyl)-2H-pyrazolo[3,4-d][1,3]thiazol-5-yl]amino}pyrrolidine-1-carbonyl)cyclopropane-1-carbonitrile] | 250 | > 30000 | – |
| CCc1cc(O)c(-n2cc3sc(N[C@@H]4C[C@@H](F)CN(C)C4)nc3n2)c(CC)c1 [Example 59, 3,5-diethyl-2-(5-{[(3R,5R)-5-fluoro-1-methylpiperidin-3-yl]amino}-2H-pyrazolo[3,4-d][1,3]thiazol-2-yl)phenol] | 23 | > 30000 | – |
| CCN1C[C@H](F)C[C@@H](Nc2nc3nn(-c4c(C)cc(C(F)F)cc4O)cc3s2)C1 [Example 16, 5-(difluoromethyl)-2-(5-{[(3R,5R)-1-ethyl-5-fluoropiperidin-3-yl]amino}-2H-pyrazolo[3,4-d][1,3]thiazol-2-yl)-3-methylphenol] | 11 | > 30000 | – |
| CC(=O)N1CCC(Nc2nc3nn(-c4c(C)cc(C)cc4O)cc3s2)C1 (stereo not drawn) [Example 85, 1-(3-{[2-(2-hydroxy-4,6-dimethylphenyl)-2H-pyrazolo[3,4-d][1,3]thiazol-5-yl]amino}pyrrolidin-1-yl)ethan-1-one] | 350 | > 30000 | – |
| Cc1cc(C)c(-n2cc3sc(N[C@H]4CC[C@@H](O)CC4)nc3n2)c(O)c1 [Example 26, 2-{5-[(cis-4-hydroxycyclohexyl)amino]-2H-pyrazolo[3,4-d][1,3]thiazol-2-yl}-3,5-dimethylphenol] | 830 | > 10000 | – |
| CCN1C[C@H](F)C[C@@H](Nc2nc3nn(-c4c(O)cc(C)cc4OC(F)F)cc3s2)C1 [Example 51, 3-(difluoromethoxy)-2-(5-{[(3R,5R)-1-ethyl-5-fluoropiperidin-3-yl]amino}-2H-pyrazolo[3,4-d][1,3]thiazol-2-yl)-5-methylphenol] | 2.8 | > 30000 | – |
| Cc1cc(C)c(-n2cc3sc(N[C@@H]4COCC[C@H]4O)nc3n2)c(O)c1 [Example 165, 1,5-anhydro-2,4-dideoxy-2-{[2-(2-hydroxy-4,6-dimethylphenyl)-2H-pyrazolo[3,4-d][1,3]thiazol-5-yl]amino}-D-threo-pentitol] | 1800 | > 30000 | – |
| CO[C@H](C)CNc1nc2nn(-c3c(C)cc(C)cc3O)cc2s1 [Example 120, 2-(5-{[(2R)-2-methoxypropyl]amino}-2H-pyrazolo[3,4-d][1,3]thiazol-2-yl)-3,5-dimethylphenol] | 720 | > 30000 | – |
| Cc1cc(C)c(-n2cc3sc(NC4CCN(S(C)(=O)=O)C4)nc3n2)c(O)c1 (stereo not drawn) [Example 100, 2-(5-{[1-(methanesulfonyl)pyrrolidin-3-yl]amino}-2H-pyrazolo[3,4-d][1,3]thiazol-2-yl)-3,5-dimethylphenol] | 620 | > 30000 | – |
| Cc1cc(C)c(-n2cc3sc(NC45CC(O)(C4)C5)nc3n2)c(O)c1 [Example 169, 3-{[2-(2-hydroxy-4,6-dimethylphenyl)-2H-pyrazolo[3,4-d][1,3]thiazol-5-yl]amino} bicyclo[1.1.1]pentan-1-ol] | 430 | > 30000 | – |
| Cc1cc(O)c(-n2cc3sc(N[C@@H]4C[C@@H](F)CN(C)C4)nc3n2)c(C2CC2)c1 [Example 65, 3-cyclopropyl-2-(5-{[(3R,5R)-5-fluoro-1-methylpiperidin-3-yl]amino}-2H-pyrazolo[3,4-d][1,3]thiazol-2-yl)-5-methylphenol] | 8.3 | > 30000 | – |
| Cc1cc(O)c(-n2cc3sc(N[C@@H]4C[C@@H](F)CN(C)C4)nc3n2)c(Cl)c1 [Example 11, 3-chloro-2-(5-{[(3R,5R)-5-fluoro-1-methylpiperidin-3-yl]amino}-2H-pyrazolo[3,4-d][1,3]thiazol-2-yl)-5-methylphenol] | 37 | > 30000 | – |
| Cc1cc(C)c(-n2cc3sc(NCC(C)(C)O)nc3n2)c(O)c1 [Example 66, 2-{5-[(2-hydroxy-2-methylpropyl)amino]-2H-pyrazolo[3,4-d][1,3]thiazol-2-yl}-3,5-dimethylphenol] | 250 | > 30000 | – |
| COc1cc(C)cc(O)c1-n1cc2sc(N[C@@H]3C[C@@H](F)CN(C)C3)nc2n1 [Example 48, 2-(5-{[(3R,5R)-5-fluoro-1-methylpiperidin-3-yl]amino}-2H-pyrazolo[3,4-d][1,3]thiazol-2-yl)-3-methoxy-5-methylphenol] | 130 | > 10000 | – |
| Cc1cc(C)c(-n2cc3sc(N[C@H]4COC[C@H]4F)nc3n2)c(O)c1 (single isomer, unassigned) [Example 145, 2-(5-{[(3R,4R)-4-fluorooxolan-3-yl]amino}-2H-pyrazolo[3,4-d][1,3]thiazol-2-yl)-3,5-dimethylphenol or 2-(5-{[(3S,4S)-4-fluorooxolan-3-yl]amino}-2H-pyrazolo[3,4-d][1,3]thiazol-2-yl)-3,5-dimethylphenol (tR2)] | 440 | – | > 30000 |
| Cc1cc(C)c(-n2cc3sc(NC4CCN(C(=O)CC5CC5)C4)nc3n2)c(O)c1 (stereo not drawn) [Example 97, 2-cyclopropyl-1-(3-{[2-(2-hydroxy-4,6-dimethylphenyl)-2H-pyrazolo[3,4-d][1,3]thiazol-5-yl]amino}pyrrolidin-1-yl)ethan-1-one] | 260 | > 10000 | – |
